Source: patent publication US8771723B2, “Compositions for reducing gastro-intestinal methanogenesis in ruminants” (priority 2009, dated 2014)
Values joined by “and” are separate entries in the source; they are usually repeats but may differ in a detail not shown here. Equal entries are not always repeated. Marks after values point to notes of the source that are not given here.

Key:
[1] = Methemoglobin content of blood during adaptation period
Procedure: Blood was sampled at d2, d8, d15, d22 and d28 at 1, 3 and 5 h post-feeding. […] Blood samples were taken in heparin containing collection tubes (Vacutainers) and stored in the refrigerator directly after sampling. At the end of the sampling day, samples were dispatched for analyses and were analyzed the next day.

[2] = tested on: methane emissions from enteric fermentation; assay: Methane production in indirect respiration calorimetry chambers; type: in vivo, male Texel Cross lambs; details: for Actual decrease in methane production as CH4 mass: CH4=0.714 g/l; for Methane production rate over 24 h versus control: fed once daily, nitrate: immediately after feeding, SO4: entire 24 h-period; for Actual decrease in methane production / Reduction in daily methane production: respiration chambers; for Actual decrease in methane production: 24.9 g NO3 or 27.0 g SO4 consumed per day; for Reduction in daily methane production: addition to the diet
Excerpt: Feed intake and growth were monitored during the experiment. […] After the adaptation period four animals (one block) were housed in indirect respiration calorimetry chambers for a week to determine gaseous exchange. In the following weeks a new block of sheep was introduced to the chambers each week. Each respiration chamber housed an individual sheep. The respiration calorimetry chambers used are described in detail in […] et al. (1987). […] Net production or consumption of these gases was calculated from the difference in concentrations between in and outgoing air multiplied by air flow and subsequently recalculated to standard circumstances (0° C., 101 kPa, no water vapour). […] Animals were blocked by weight and subsequently within a block randomly allotted to one of four dietary treatments: CON, NO3, SO4 or NO3+SO4. During the adaptation phase, sheep were introduced to the experimental premixes in steps of 25% per week. […] Before morning feeding, orts were removed from the feed bins and weighed to determine voluntary feed intake. During the week in the respiration chambers, feed availability was restricted to 95% of the feed consumed by the animal consuming the least feed within a block in the week prior to housing in the respiration chambers. Feed restriction was applied to avoid interactions between the effect of the additives on DMI and the effect on methane production.

[3] = cited from earlier work
rumen microbes = assay: In vitro rumen fermentation simulation; type: cell-based, cow
Procedure: Feed used in rumen simulation was 1 gram of dry matter and composed of grass silage (0.5 g dry matter) and commercial compound feed, 0.5 g dry matter. The treatments were as indicate in the following table: […] All the treatments were run in quadruplicates, the total number of simulation vessels being 72. […] Finally, 2 ml of fresh, strained rumen fluid was added in the serum bottles, the final volume being 40 ml. This inoculation started the actual rumen simulation. Inoculation time for each vessel was registered and taken into account when sampling and stopping the fermentation. Rumen fermentation simulation was continued for 12 hours at 37° C. […] These samples were analysed for methane to see the effect of treatments on the total methane produced by rumen bacteria during the 12 hours. The analysis was performed by gas chromatography using flame ionisation detector and pure methane and ethane as standards. NO3 and NO2 were analysed from all simulation vessels at 0, 2, 4 and 12 hours. […] NH4 was analysed from all simulation vessels at 0, 2, 4 and 12 hours. The method was colorimetric and based on phenol-hypochlorite reaction. Statistical analysis consisted of two-tailed t-tests for all measured parameters. The tests were performed against the treatment with […] and MgSO4 amendment (treatments 2 and 17). t-test was chosen to let the individual treatments be independent of the other treatments tested simultaneously.

[4] = Feed intake, CO2/O2 exchange and heat production in respiration chambers; type: in vivo, male Texel Cross lambs
Procedure: After the adaptation period four animals (one block) were housed in indirect respiration calorimetry chambers for a week to determine gaseous exchange. In the following weeks a new block of sheep was introduced to the chambers each week. Each respiration chamber housed an individual sheep. The respiration calorimetry chambers used are described in detail in […] et al. (1987). […] Net production or consumption of these gases was calculated from the difference in concentrations between in and outgoing air multiplied by air flow and subsequently recalculated to standard circumstances (0° C., 101 kPa, no water vapour). […] Before morning feeding, orts were removed from the feed bins and weighed to determine voluntary feed intake. During the week in the respiration chambers, feed availability was restricted to 95% of the feed consumed by the animal consuming the least feed within a block in the week prior to housing in the respiration chambers. Feed restriction was applied to avoid interactions between the effect of the additives on DMI and the effect on methane production.

methanogens = assay: Enteric methanogen counts; details: in vivo
[5] = Blood methaemoglobin in cows supplemented with nitrate and sulphate; type: in vivo
Procedure: The experiment was a randomized block design, with 4 animals per block and different sulphate doses as treatments. Animals were blocked by milk yield and subsequently within a block randomly allotted to one of four dietary treatments: NO3, NO3+low SO4, NO3+medium SO4, NO3+high SO4.
The dietary additives were included in the premix (table 5). At feeding, the premixes were delivered to cows as part of a Total Mixed Ration. Water was freely available during the experiment.
Blood was sampled 3 h post-feeding twice a week throughout the experiment to closely monitor the concentration of methaemoglobin. Blood was collected into evacuated tubes containing heparin, plunged immediately into ice-cold water and stored in a refrigerator at 4 C. At the end of each sampling day, samples were dispatched for analysis and were analyzed the next day.

[6] = Feed intake and growth during the 4-week adaptation to dietary nitrate and sulphate; type: in vivo, male Texel Cross lambs; details: for Feed intake: main effect, additive in diet (Yes); for Effect on body weight gain: adaptation stage; for Body weight (BW) / Body weight gain (BWG) overall / Body weight gain (BWG): main effect (Yes); for Body weight gain (BWG) overall: overall adaptation stage
Excerpt: Feed intake and growth were monitored during the experiment. […] The Animal Care and Use Committee of the Animal Sciences Group, WUR, Lelystad approved the experimental protocol of this experiment. […] During a four-week adaptation phase to the dietary additives, animals were housed in individual calf hutches to allow individual feeding. Sheep were weighed weekly to monitor growth during the entire experiment. […] Animals were blocked by weight and subsequently within a block randomly allotted to one of four dietary treatments: CON, NO3, SO4 or NO3+SO4. […] At feeding, the premixes were hand-mixed into the diets. Water was freely available during the experiment. […] Before morning feeding, orts were removed from the feed bins and weighed to determine voluntary feed intake. During the week in the respiration chambers, feed availability was restricted to 95% of the feed consumed by the animal consuming the least feed within a block in the week prior to housing in the respiration chambers. Feed restriction was applied to avoid interactions between the effect of the additives on DMI and the effect on methane production. […] Limestone was added to the control diet to ensure equal Ca-intake between treatments. MgO was included in the diet to obtain similar Mg-levels between diets. The volume of the different additions to the diets was different for each treatment, and wood cellulose was used to balance for this.

Molecule	Actual decrease in methane production as CH4 mass [2]	Methane production rate over 24 h versus control [2]	Actual decrease in methane production [2]	Reduction in daily methane production [2]	effect on enteric methanogen counts (methanogens)	Feed intake ([6]; Week 1 of adaptation)	Feed intake ([6]; Week 2 of adaptation)	Feed intake ([6]; Week 3 of adaptation)	Feed intake ([6]; Week 4 of adaptation)	Effect on body weight gain [6]	Body weight (BW) ([6]; day 0)	Body weight (BW) ([6]; day 7)	Body weight (BW) ([6]; day 14)	Body weight (BW) ([6]; day 21)	Body weight (BW) ([6]; day 28)	Body weight gain (BWG) overall [6]	Body weight gain (BWG) ([6]; week 1)	Body weight gain (BWG) ([6]; week 2)	Body weight gain (BWG) ([6]; week 3)	Body weight gain (BWG) ([6]; week 4)	further results
5Ca(NO3)2•NH4NO3•10H2O [Nitrate]	5.8 g	remained at a far lower level	8.1 L	34%	reduce enteric methanogen counts	2686 g/lamb/day	2591 g/lamb/day	2526 g/lamb/day	2411 g/lamb/day	did not affect body weight gain	43.0 kg/lamb	43.6 kg/lamb	44.7 kg/lamb	45.2 kg/lamb	45.5 kg/lamb	2.46 kg/lamb/week	0.54 kg/lamb/week	1.08 kg/lamb/week	0.59 kg/lamb/week	0.25 kg/lamb/week	blood MetHb-content ([1]; 75% of the inclusion rate, 3 h post feeding, one sheep tested positive): 3 % of Hb; MetHb-values ([1]; 100% inclusion rate for one week (d28), 3 h post-feeding, two individual sheep tested positive, listed as NO3): 7 % of Hb and 3 % of Hb; MetHb-levels, highest observed ([1]; whole experiment, detection limit 2% of Hb): ≤ 7 % of Hb; MetHb-levels ([3]; Sar et al. (2004), 0.9 g NO3/kg^0.75 of BW intraruminally, no adaptation): 18.4 % of Hb; suppression of absolute methane production (rumen microbes; 12-hour simulation (FIG. 5A)): ~80%; total produced methane (rumen microbes; 12-hour simulation, 14 mM nitrate): 1.5 mL; residual concentration of ammonium (rumen microbes; 12 hours, 14 mM nitrate added (FIG. 8C)): 18 mM; Oxygen consumption lower than control ([4]; directly after feeding at 8 AM): 10-18%; MetHb-levels estimated from oxygen consumption ([4]; regression equation of Takahashi et al., 1998): approximately 5%; Reduction in oxygen consumption ([4]; respiration chambers, daily): 6%; rise in blood methaemoglobin ([5]; 100% inclusion rate of nitrate): more pronounced; Blood methaemoglobin ([5]; cows, diets with 3% NO3 of DM and increasing SO4 (table 5)): 13.1^a % of haemoglobin; Feed intake reduction ([6]; period beyond week 1 (more than 25% of final inclusion rate)): approximately 9%
O=[N+]([O-])[O-].[Na+] [NaNO3, reference compound]																					Concentrations of MetHb ([3]; Takahashi et al., 1998, 1.5 g/kg BW^0.75 into the rumen): over 30%
O=S(=O)([O-])[O-].[Mg+2] [Sulphate, MgSO4 (anhydrous)]	2.9 g	consistently lower than the control treatment	4 L	19%	does not	2724 g/lamb/day	2770 g/lamb/day	2618 g/lamb/day	2457 g/lamb/day	did not affect body weight gain	42.4 kg/lamb	43.1 kg/lamb	44.3 kg/lamb	44.7 kg/lamb	44.8 kg/lamb	2.34 kg/lamb/week	0.70 kg/lamb/week	1.20 kg/lamb/week	0.38 kg/lamb/week	0.06 kg/lamb/week	
CC(O)C(=O)O (centres unmarked) [lactic acid, Na-lactate]																					gas production, initial (rumen microbes; first 4 hours, compared to the nitrate enriched treatment (Calcinit + MgSO4)): suppressed; cumulative gas production, later time points (rumen microbes; later time points up to 12 h, compared to Calcinit + MgSO4): continued to suppress gas production dose dependently
